Converted amounts (≈) assume the structure as drawn. Where two headings read alike, the source gives them in different places.
Key:
[1] = tested on: M. avium subsp. hominisuis MAC109; assay: MIC, anti-mycobacterial profiling; type: cell-based, Mycobacterium avium; settings: mean of two experiments
M. chimaera CCUG 50989T = assay: MIC, anti-mycobacterial profiling; type: cell-based, Mycobacterium chimaera; settings: mean of two experiments
M. fortuitum ATCC 6841 = assay: MIC, anti-mycobacterial profiling; type: cell-based, Mycobacterium fortuitum; settings: mean of two experiments
[2] = tested on: M. intracellulare ATCC 13950; assay: MIC, anti-mycobacterial profiling; type: cell-based, Mycobacterium intracellulare; settings: mean of two experiments
M. abscessus ATCC 19977 = assay: MIC assay in 96-well plate format, wild-type strain; type: cell-based, Mycobacterium abscessus; settings: for MICWT: Table 10
Summary of the method: (§1)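 Two-fold, ten-point dilutions in 7H9 with 2% DMSO; mid-log culture diluted to OD600=0.1 (1×10^7 CFU/mL). Incubated 3 days at 37 °C, shaking 110 RPM; growth = Day 3 minus Day 0 OD600, expressed as percentage of drug-free growth and plotted against concentration. Two biological replicates.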

M. szulgai ATCC 35799 = assay: MIC, anti-mycobacterial profiling; type: cell-based, Mycobacterium szulgai; settings: mean of two experiments
M. chelonae ATCC 35752 = assay: MIC, anti-mycobacterial profiling; type: cell-based, Mycobacterium chelonae; settings: mean of two experiments
[3] = tested on: M. abscessus subsp. bolletii CCUG 50184T; assay: MIC, anti-mycobacterial profiling; type: cell-based, Mycobacterium abscessus; settings: mean of two experiments
Procedure: (§2) MIC determination was carried out in 96-well plate format as previously described.^[13-14] 96-well plates were initially set up with 100 μL of 7H9 per well. For each compound, a ten-point two-fold dilution series starting at twice the desired highest concentration was dispensed onto the 96-well plates using a Tecan D300e Digital Dispenser, with the DMSO concentration normalized to 2%. M. abscessus culture grown to mid-log phase (OD600=0.4-0.6) was diluted to OD600=0.1 (1×10^7 CFU/mL). 100 μL of the resulting bacteria suspension was dispensed onto the 96-well plates containing compounds to give a final volume of 200 μL per well with an initial OD600=0.05 (5×10^6 CFU/mL) and final DMSO concentration of 1%. Final compound concentration ranges were typically 50-0.098 μM, 6.25-0.012 μM, 0.006-3.13 μM, or 0.003-1.56 μM. Untreated control wells are included on each plate that contain bacteria suspension and 1% DMSO. Plates were sealed with parafilm, stored in boxes with wet paper towels and incubated at 37° C. with shaking (110 RPM). Plates were incubated for 3 days. To determine growth, OD600 was measured using a Tecan Infinite M200 plate reader on Day 0 and Day 3. Two biological replicates were performed. Clarithromycin was included in each experiment as a positive control.
(§3) For each well on the 96-well plate, bacterial growth was calculated by subtracting the Day 0 OD600 value from the Day 3 OD600 value. For each compound series, the bacterial growth values for the untreated control wells were averaged to give the average drug-free bacterial growth. For compound-containing wells, percentage growth was calculated by dividing their growth values by the average drug-free bacterial growth for the compound series and multiplying by 100. For each compound series, we plotted percentage growth versus compound concentration. By visual inspection of the dose-response curve, we determined the MIC of a compound as the compound concentrations that would result in 90% growth inhibition.
(§4) The MIC data was determined using methods disclosed in Example 1.

[4] = tested on: M. abscessus subsp. massiliense CCUG 48898T; assay: MIC, anti-mycobacterial profiling; type: cell-based, Mycobacterium abscessus; settings: mean of two experiments
Procedure: as §2, §3, §4

M. kansasii ATCC 12478 = assay: MIC, anti-mycobacterial profiling; type: cell-based, Mycobacterium kansasii; settings: mean of two experiments
M. simiae ATCC 25275 = assay: MIC, anti-mycobacterial profiling; type: cell-based, Mycobacterium simiae; settings: mean of two experiments
M. xenopi ATCC 19250 = assay: MIC, anti-mycobacterial profiling; type: cell-based, Mycobacterium xenopi; settings: mean of two experiments
Mycobacterium abscessus = assay: MIC against Mycobacterium abscessus (strain not given); type: cell-based
[5] = Mouse pharmacokinetics studies; type: in vivo, CD-1 mice; settings: for ƒAUC/MIC: Table 20; for F / Vd / clearance: female, CD-1, mouse, in vivo
Summary of the method: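 Plasma from K2EDTA-collected blood analysed by LC-MS/MS with multiple-reaction monitoring in electrospray positive mode. Parameters derived by non-compartmental analysis.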

Δarr M. abscessus = assay: MIC assay, isogenic arr-deleted strain; type: cell-based, Mycobacterium abscessus; settings: Table 10
Summary of the method: as §1

CYP3A4 = settings: human, 10 μM
Mab ATCC 19977 (Smooth) = assay: Acute Mab mouse infection model (GM-CSF knockout mice); type: in vivo; settings: 25 mg/kg every day for 7 days
Procedure: In vivo efficacy of compounds UMN22 and UMN34 were evaluated in acute Mab mouse infection model.

[6] = Plasma protein binding assay (rapid equilibrium dialysis); type: in vitro ADME; settings: plasma
Summary of the method: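 Plasma was spiked to 10,000 ng/mL compound and dialysed against PBS by rapid equilibrium dialysis for 4 h at 37° C with shaking at 300 RPM. Plasma and buffer aliquots were matrix-matched 1:1 […] and quantified by LC-MS/MS.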

THP-1 = assay: Fold-killing in THP-1; type: cell-based; settings: expressed in log-10 scale
[7] = Mycobacteroides abscessus, 72 h, Table 22, read-out: MICMab
[8] = Mycobacteroides abscessus, against Mycobacterium abscessus, Table 19, read-out: MIC
[9] = against Mycobacterium abscessus, Table 20, read-out: MIC

| Structure (SMILES) | MIC (Mycobacterium abscessus; [7]) [µM] | MIC (Mycobacterium abscessus; [8]) [µM] | MIC (Mycobacterium abscessus; [9]) [µM] | ƒAUC/MIC [5] | F [5] [%] | Vd [5] [L/kg] | clearance [5] [L/h/kg] | MICΔorr (Δarr M. abscessus) [µM] | CYP3A4 gene fold-induction at 10 μM (CYP3A4) | reduction in lung CFU burden vs RFB and untreated groups (Mab ATCC 19977 (Smooth)) [log10] | plasma unbound (ƒu, %) ([6]; 4 h, 10000 ng/mL) [%] | MICWT (M. abscessus ATCC 19977) [µM] | Fold-killing in THP-1 (THP-1) | also measured |
| --- | --- | --- | --- | --- | --- | --- | --- | --- | --- | --- | --- | --- | --- | --- |
| CO[C@H]1/C=C/O[C@@]2(C)Oc3c(C)c(O)c4c(O)c(c(/C=N/N5CCN(C)CC5)c(O)c4c3C2=O)NC(=O)/C(C)=C\C=C\[C@H](C)[C@H](O)[C@@H](C)[C@@H](O)[C@@H](C)[C@H](OC(C)=O)[C@@H]1C [RIF] | – | – | – | – | – | – | – | – | – | – | – | – | – | MIC [1]: 0.04 µM (≈ 0.0329 µg/mL); MIC (M. chimaera CCUG 50989T): 0.07 µM (≈ 0.0576 µg/mL); MIC (M. fortuitum ATCC 6841): 6.7 µM (≈ 5.51 µg/mL); MIC [2]: 0.06 µM (≈ 0.0494 µg/mL); MIC (M. abscessus ATCC 19977; M. abscessus subsp. abscessus ATCC 19977, mean of two experiments, read-out: MIC): 9.5 µM (≈ 7.82 µg/mL); MIC (M. szulgai ATCC 35799): 0.06 µM (≈ 0.0494 µg/mL); MIC (M. chelonae ATCC 35752): 1.4 µM (≈ 1.15 µg/mL); MIC [3]: 28 µM (≈ 23 µg/mL); MIC [4]: 13 µM (≈ 10.7 µg/mL); MIC (M. kansasii ATCC 12478): 0.3 µM (≈ 0.247 µg/mL); MIC (M. simiae ATCC 25275): >100 µM; MIC (M. xenopi ATCC 19250): 0.04 µM (≈ 0.0329 µg/mL) |
| CO[C@H]1/C=C/O[C@@]2(C)Oc3c(C)c(O)c4c(c3C2=O)C2=NC3(CCN(CC(C)C)CC3)NC2=C(NC(=O)/C(C)=C/C=C/[C@H](C)[C@H](O)[C@@H](C)[C@@H](O)[C@@H](C)[C@H](OC(=O)c2cccnc2)[C@@H]1C)C4=O [UMN22] | 0.025 (≈ 0.0228 µg/mL) | 0.025 (≈ 0.0228 µg/mL) | 0.025 (≈ 0.0228 µg/mL) | 45.0 | 78 | 1.6 | 0.18 | 0.027 | 14.1 | ~2 | 2.0 | 0.025 | 3.8 | – |
| COc1ccccc1NC(=O)O[C@H]1[C@H](C)[C@H](O)[C@H](C)[C@@H](O)[C@@H](C)/C=C/C=C(\C)C(=O)NC2=C3NC4(CCN(CC(C)C)CC4)N=C3c3c(c(O)c(C)c4c3C(=O)[C@@](C)(O/C=C/[C@H](OC)[C@H]1C)O4)C2=O [UMN34] | – | – | 0.015 (≈ 0.0143 µg/mL) | 0.9 | – | – | – | 0.014 | – | ~2 | – | 0.015 | 4.9 | plasma unbound (ƒu, %) [6]: 0.12%; plasma unbound fraction [6]: 0.12% |
| CO[C@H]1/C=C/O[C@@]2(C)Oc3c(C)c(O)c4c(c3C2=O)C2=NC3(CCN(CC(C)C)CC3)NC2=C(NC(=O)/C(C)=C/C=C/[C@H](C)[C@H](O)[C@@H](C)[C@@H](O)[C@@H](C)[C@H](OC(=O)c2cncnc2)[C@@H]1C)C4=O [UMN46] | 0.018 (≈ 0.0164 µg/mL) | 0.018 (≈ 0.0164 µg/mL) | 0.018 (≈ 0.0164 µg/mL) | 87.8 | 86 | 2.1 | 0.24 | 0.025 | 7.9 | – | 4.7 | 0.018 | 4.4 | – |

Reference: patent publication US20260109712A1, “RIFAMYCINS FOR NONTUBERCULOUS MYCOBACTERIA” (priority 2022, published 2026)
